For eleven compounds, inhibition results are on record in patent US20070093524A1, “5-Lipoxygenase modulators” (Wyeth, priority 2005, published 2007).

The test system of the test is 5-LO mRNA. The test can be described thus: Downregulation of 5-LO gene expression (5-LO mRNA by real-time RT-PCR) in acetylated-LDL-stimulated macrophage cell lines. Type of test: cell-based, human and mouse. Particulars: macrophage cell line (THP-1 or J774, not specified); for inhibition at 0.1 µM: 0.1 uM compound; for inhibition at 0.3 µM: 0.3 uM compound; for inhibition at 1 µM: 1.0 uM compound; for inhibition at 3 µM: 3.0 uM compound. On the procedure:
A panel of LXR or PPAR modulator compounds was tested to determine whether they could downregulate 5-LO gene expression. The compounds were individually tested to determine whether they could downregulate 5-LO gene expression in human and mouse macrophage cell lines.
Preparation of Acetylated LDL: LDL was dialyzed with 500 mL phosphate buffered saline (PBS) three times. 2.5 mL of dialyzed LDL was mixed with 2.5 mL of saturated sodium acetate with continuous stirring in an ice-water bath. Acetic anhydride was added in 7 times 7.5 μL over a period of 1 hour with continuous stirring. Then, the mixture was stirred for an additional 1 hour. The solution was dialyzed against 500 mL PBS containing 0.3 mM EDTA three times. The protein concentration is determined using Bio-Rad DC protein assay kit.
Cell Culture and Compound Treatment: Human THP-1 cells were maintained in RPMI 1640 medium containing 10% Fetal Bovine Serum (FBS), 25 mM Hepes buffer, […] Genamicin, 1 mM Sodium pyruvate, and 50 μM β-mercaptoethanol. THP-1 cells were differentiated with 75 ng/mL phorbal 12,13-dibutyrate (PDBu) three days prior to assay to induce differentiation of the cells into adherent macrophages. Cells were seeded in 12 well plates in 1 mL of complete media. Each well contained 400,000 cells. The cells were stimulated with RPMI 1640 medium (1% FBS) containing 100 μg/mL acetylated-LDL in presence of phorbol ester for 48 hours, including several wells without acetylated-LDL treatment as a control. The medium was then changed to RPMI 1640 medium without FBS, plus the test compounds with phorbol ester for 48 hours. Control cells were not incubated with test compounds. The cells were incubated at 37° C. in a humidified CO2 incubator. The cells were then ready for RNA extraction.
Murine J774 cells were maintained in DMEM (high glucose) containing 10% FBS, 100 units/mL penicillin, and 100 μg/mL streptomycin. Six hours prior to assay, J774 cells were seeded into 96-well plates in 150 μL complete media. Each well contains 75,000 cells. The cells were stimulated with DMEM-high glucose (1% FBS) containing 100 μg/mL acetylated-LDL for 24 to 48 hours, including several wells without acetylated-LDL treatment as a control. The media was then changed to DMEM-high glucose (without FBS) plus the test compounds for 24 to 48 hours. Compounds were dosed in DMSO vehicle and control cells were treated with vehicle alone. The cells were incubated at 37° C. in a humidified CO2 incubator. The cells were then ready for RNA isolation.
RNA analysis: Total RNA was isolated from the THP-1 cells by using a QIAGEN RNeasy Mini Kit. Real-time quantitative RT-PCR assays were performed using an Applied Biosystems 7900 sequence detector. Each amplification mixture (50 μL) contained 50-100 ng of total RNA, 200 nM forward primer, 200 nM reverse primer, and 200 nM dual-labeled fluorogenic probe. The RT-PCR reagent is from QIAGEN (QuantiTect Probe RT-PCR kit). The RT-PCR thermocycling parameters were 48° C. for 30 minutes, 95° C. for 10 minutes, and 40 cycles at 95° C. for 15 seconds and 55° C. for 1 minute. The samples, no-RT controls, and serially diluted RNA standards were analyzed in parallel. The 5-LO target gene was analyzed and normalized for human glyceraldehyde-3-phosphate dehydrogenase (GAPDH) expression using probe and primers from predeveloped assays for GAPDH (Applied Biosystems). Quantitative analysis was performed using the threshold procedure, and relative amounts were calculated from the standard curve.
Total RNA from the J774 cells was isolated by using the ABI 6100 RNA isolation system for 96-well plates (the THP-1 cells can also be cultured and tested in 96-well plates). Real-time quantitative RT-PCR assays were performed using an Applied Biosystems 7900 sequence detector. Each amplification mixture (50 μL) contained 50-100 ng of total RNA, 200 nM forward primer, 200 nM reverse primer, and 250 nM dual-labeled fluorogenic probe.
(In general: Real-time PCR tracks product formation cycle by cycle.)

SMILES strings stand for the structures.

With `O=C(O)Cc1ccc(CNc2cccc(-c3c(Cc4ccccc4)cnc4c(C(F)(F)F)cccc34)c2)cc1` [Compound I-1, (4-{[3-(3-Benzyl-8-trifluoromethyl-quinolin-4-yl)-phenylamino]-methyl}-phenyl)-acetic acid], the inhibition (commonly the share of the control response that was lost under treatment) at 0.1 µM was determined as 91%, the inhibition at 0.3 µM turned out to be 82%, the inhibition at 1 µM came to 88% and the inhibition at 3 µM was 83%.
`O=C(O)Cc1ccc(COc2cccc(-c3c(Cc4ccccc4)cnc4c(C(F)(F)F)cccc34)c2)cc1` [Compound I-2, {4-[3-(3-Benzyl-8-trifluoromethyl-quinolin-4-yl)-phenoxymethyl]-phenyl}-acetic acid] registered an inhibition at 0.1 µM of 84% and an inhibition at 1 µM of 92%.
In the same order, the values of `Cc1cnc2c(C(F)(F)F)cccc2c1-c1cccc(OCc2ccc(CC(=O)O)cc2)c1` [Compound I-4, {4-[3-(3-Methyl-8-trifluoromethyl-quinolin-4-yl)-phenoxymethyl]-phenyl}-acetic acid] are 79% and 90%.
In turn, `O=C(O)Cc1ccc(COc2cccc(-c3c(-c4ccccc4)cnc4c(Cl)cccc34)c2)cc1` [Compound I-5, {4-[3-(8-Chloro-3-phenyl-quinolin-4-yl)-phenoxymethyl]-phenyl}-acetic acid] showed an inhibition at 0.1 µM of 87% and an inhibition at 1 µM of 91%.
For `Cc1cnc2c(Cl)cccc2c1-c1cccc(OCc2ccc(CC(=O)O)cc2)c1` [Compound I-6, {4-[3-(8-Chloro-3-methyl-quinolin-4-yl)-phenoxymethyl]-phenyl}-acetic acid] the same measures were 62% and 81%.
For `CC(C)(C(=O)O)c1ccc(COc2cccc(-c3c(Cc4ccccc4)cnc4c(C(F)(F)F)cccc34)c2)cc1` [Compound I-7, 2-{4-[3-(3-Benzyl-8-trifluoromethyl-quinolin-4-yl)-phenoxymethyl]-phenyl}-2-methyl-propionic acid] the same measures were 87% and 88%.
Compound `CC(C)(C(=O)O)c1ccc(COc2cccc(-c3c(-c4ccccc4)cnc4c(Cl)cccc34)c2)cc1` [Compound I-8, 2-{4-[3-(8-Chloro-3-phenyl-quinolin-4-yl)-phenoxymethyl]-phenyl}-2-methyl-propionic acid] came in with an inhibition at 0.1 µM of 89% and an inhibition at 1 µM of 93%.
Regarding `O=C(O)Cc1ccc(C#Cc2cccc(-c3c(Cc4ccccc4)cnc4c(C(F)(F)F)cccc34)c2)cc1` [Compound I-9, {4-[3-(3-Benzyl-8-trifluoromethyl-quinolin-4-yl)-phenylethynyl]-phenyl}-acetic acid], the inhibition at 0.1 µM was determined as 22% and the inhibition at 1 µM stood at 45%.
Compound `Cc1cnc2c(C(F)(F)F)cccc2c1-c1cccc(OCc2ccc([C@@H](C)C(=O)O)cc2)c1` [Compound I-10, (2R)-2-{4-[3-(3-Methyl-8-trifluoromethyl-quinolin-4-yl)-phenoxymethyl]-phenyl}-propionic acid] returned an inhibition at 0.1 µM of 86% and an inhibition at 1 µM of 83%.
`COC(=O)Cc1ccc(CNc2cccc(-c3c(C(=O)c4ccccc4)cnc4c(C(F)(F)F)cccc34)c2)cc1` [Compound I-11, (4-{[3-(3-Benzoyl-8-trifluoromethyl-quinolin-4-yl)-phenylamino]-methyl}-phenyl)-acetic acid methyl ester] gave an inhibition at 0.3 µM of 74% and an inhibition at 3 µM of 71%.
`NNC(=O)Cc1ccc(CNc2cccc(-c3c(Cc4ccccc4)cnc4c(C(F)(F)F)cccc34)c2)cc1` [Compound I-12, (4-{[3-(3-Benzyl-8-trifluoromethyl-quinolin-4-yl)-phenylamino]-methyl}-phenyl)-acetic acid hydrazide] came in with an inhibition at 0.3 µM of 71% and an inhibition at 3 µM of 76%.
